From patent publication US20250228851A1, “ALLOSTERIC INHIBITOR COMPOUNDS FOR OVERCOMING CANCER RESISTANCE” (priority 2021, published 2025)
Entries after “also recorded” stand apart in the source; their conditions may differ.

How the values were obtained:
[1] = system: Ba/F3 cells expressing p185-BCR-ABL; assay: XTT cell viability / proliferation, Ba/F3 expressing p185-BCR-ABL; assay type: cell-based, murine
Method: (§1) • 1. Ba/F3 cells were obtained from the German Collection of Microorganisms and Cell Cultures (DSMZ, Braunschweig, Germany) and maintained in RPMI 1640 medium supplemented with 10% fetal calf serum (Invitrogen) containing 10 ng/ml of interleukin-3 (Cell Concepts, Umkirch, Germany). Ecotropic Phoenix cells and Rat-1 cells were cultured in Dulbecco's modified Eagle's medium supplemented with 10% fetal calf serum. GNF-2 (Sigma-Adrich, Steinheim, Germany) was dissolved in dimethyl sulfoxide and added at a final concentration of […]. Cell growth was assessed by dye exclusion using Trypan blue. Proliferation was assessed using the XTT proliferation kit (Roche, Mannheim, Germany), according to the manufacturer's instructions. • 2. Ba/F3: IL-3 dependent lymphatic murine pro B cell line. Ba/F3 cells expressing either p185-BCR-ABL1 (p185-BCR-ABL-Ba/F3) or p210-BCR-ABL (p210-BCR-ABL-Ba/F3). p185-BCR-ABL1 (activated kinases substitute for the IL-3 signaling and therefore render the cells IL3 independent. Ba/F3 cells expressing either p185-BCR-ABL (p185-Ba/F3) or p210-BCR-ABL (p210-Ba/F3). Ba/F3 cells obtained from the German Collection of Microorganisms and Cell Cultures (DSMZ, Braunschweig, Germany). • 3. Mutant transduced Ba/F3 cells (T315I-p185-BCR-ABL1 or T315I-p210-BCR-ABL1): Ba/F3 cells expressing either the mutated forms T315I-p185-BCR-ABL1 or T315I-p210-BCR-ABL1. • 4. WT-Sup-B15: A Ph+ ALL cell line harboring the p185-BCR-ABL. Sup-B15: established from the bone marrow of a child with acute lymphoblastic leukemia (B cell precursor ALL) in second relapse in 1984; described in the literature to carry the ALL-variant (m-BCR) of the BCR-ABL1 fusion gene (e1-a2) correct, because it results in the p185-BCR-ABL version. • 5. […] V617FJAK2 HEL: (Human erythroleukemia) is a growth factor independent erythroleukemic cell line established from the bone marrow of a patient with relapsed Hodgkin disease after autologous bone marrow transplantation (Martin P & Papayannopoulou T: Science 1982; 216:1233-1235). HEL cells display a block in differentiation at the level of common erythroid-megakaryocytic progenitor and have been commonly used as a model to study erythroid and megakaryocytic differentiation. • 7. Jurkat: an immortalized human T lymphocyte first derived from the peripheral blood of a child suffering from T cell leukemia. Jurkat cells are used to study acute T cell leukemia, T cell signaling, and the expression of various chemokine receptors susceptible to viral entry, particularly HIV.
(§2) FIGS. 1A and 1B: Effects of Compound 16 on Ba/F3 cells expressing either p185-BCR-ABL or T315I-p185-BCR-ABL. Cells were exposed to increasing concentration of Compound 16 [empty vehicle (0.0 μM+IL3), 2.5, 5.0 and 10.0 μM]. […] Cell viability (CV) was assessed using the XTT method as described in the experimental part. The means±SD of triplicates from one representative experiment out of three performed are given.
(§3) FIGS. 7A-C: Effects of Compound 16 on of Ba/F3 cells expressing WT-p185-BCR-ABL (FIG. 7A) and the mutant gatekeeper T315I-p185-BCR-ABL (FIG. 7B) by Compound 16. Cells were exposed to increasing concentrations of Compound 16.

[2] = system: Ba/F3 cells expressing T315I-p185-BCR-ABL; assay: XTT cell viability / proliferation, Ba/F3 expressing T315I-p185-BCR-ABL; assay type: cell-based, murine
Method: as §1, §2, §3

Jurkat = assay: XTT cell viability, Jurkat; assay type: cell-based, human; details: increasing concentration up to 10 μM
Method: • 1. Ba/F3 cells were obtained from the German Collection of Microorganisms and Cell Cultures (DSMZ, Braunschweig, Germany) and maintained in RPMI 1640 medium supplemented with 10% fetal calf serum (Invitrogen) containing 10 ng/ml of interleukin-3 (Cell Concepts, Umkirch, Germany). Ecotropic Phoenix cells and Rat-1 cells were cultured in Dulbecco's modified Eagle's medium supplemented with 10% fetal calf serum. GNF-2 (Sigma-Adrich, Steinheim, Germany) was dissolved in dimethyl sulfoxide and added at a final concentration of […]. Cell growth was assessed by dye exclusion using Trypan blue. Proliferation was assessed using the XTT proliferation kit (Roche, Mannheim, Germany), according to the manufacturer's instructions. • 2. Ba/F3: IL-3 dependent lymphatic murine pro B cell line. Ba/F3 cells expressing either p185-BCR-ABL1 (p185-BCR-ABL-Ba/F3) or p210-BCR-ABL (p210-BCR-ABL-Ba/F3). p185-BCR-ABL1 (activated kinases substitute for the IL-3 signaling and therefore render the cells IL3 independent. Ba/F3 cells expressing either p185-BCR-ABL (p185-Ba/F3) or p210-BCR-ABL (p210-Ba/F3). Ba/F3 cells obtained from the German Collection of Microorganisms and Cell Cultures (DSMZ, Braunschweig, Germany). • 3. Mutant transduced Ba/F3 cells (T315I-p185-BCR-ABL1 or T315I-p210-BCR-ABL1): Ba/F3 cells expressing either the mutated forms T315I-p185-BCR-ABL1 or T315I-p210-BCR-ABL1. • 4. WT-Sup-B15: A Ph+ ALL cell line harboring the p185-BCR-ABL. Sup-B15: established from the bone marrow of a child with acute lymphoblastic leukemia (B cell precursor ALL) in second relapse in 1984; described in the literature to carry the ALL-variant (m-BCR) of the BCR-ABL1 fusion gene (e1-a2) correct, because it results in the p185-BCR-ABL version. • 5. […]
FIG. 2: Effect of Compound 16 on leukemia cell lines (Jurkat, Sup-B15 and BV173). Cell viablility (CV) was determined following incubation of the 1 m cells/ml of each cell line with increasing concentration of the Compound 16 [empty vehicle (0.0 μM+IL3), 2.5, 5.0 and 10.0 μM]. CV was measured by the XTT method. […]

HP (Ph− ALL cultures) = assay: Proliferation by dye exclusion after three days, HP; assay type: cell-based, human; details: HP, 2.5, 5 and 10 μM
Method: (§4) FIG. 3. […] Cells were exposed to increasing concentration of 2.5, 5 and 10 μM of Compound 16. The negative control cell lines Ph− ALL HP was irresponsive to increasing concentration of Compound 16 (up to 10 μM). […] All four cell lines were plated in duplicates at the indicated concentrations, and proliferation was assessed after three days by dye exclusion of viable cells. […] The sensitivity of Ph+ cells to Compound 16 underlines the involvement of BCR-ABL in the antiproliferative mechanism. Death induction of BV173 cells is well taken as an indication of the ability of such group of compounds to overcome resistance that is originated in non-mutational grounds. However, the ability overcome the resistant T315I-BCR-ABL mutant, as shown in the dose-dependent manner of KÖ (circles), might be indicative for a non-ATP competitive mechanism of action.

[3] = system: PH (Ph+ AKI sensitive culture); assay: Proliferation by dye exclusion after three days, PH; assay type: cell-based, human
Method: as §4

KÖ (Ph+T315I-BCR-ABL) = assay: Proliferation by dye exclusion after three days, KÖ; assay type: cell-based, human; details: KÖ, 2.5, 5 and 10 μM
Method: as §4

WT-Ba/F3 = assay: Proliferation by trypan blue exclusion, WT-Ba/F3; assay type: cell-based, murine; details: WT-Ba/F3, 1.0, 2.0 and 5.0 μM
Method: • 1. Ba/F3 cells were obtained from the German Collection of Microorganisms and Cell Cultures (DSMZ, Braunschweig, Germany) and maintained in RPMI 1640 medium supplemented with 10% fetal calf serum (Invitrogen) containing 10 ng/ml of interleukin-3 (Cell Concepts, Umkirch, Germany). Ecotropic Phoenix cells and Rat-1 cells were cultured in Dulbecco's modified Eagle's medium supplemented with 10% fetal calf serum. GNF-2 (Sigma-Adrich, Steinheim, Germany) was dissolved in dimethyl sulfoxide and added at a final concentration of […]. Cell growth was assessed by dye exclusion using Trypan blue. Proliferation was assessed using the XTT proliferation kit (Roche, Mannheim, Germany), according to the manufacturer's instructions. • 2. Ba/F3: IL-3 dependent lymphatic murine pro B cell line. […]
FIGS. 4A and 4B. […] All cell lines were treated with the indicated concentrations of Compound 16 for total period of five days and proliferation was determined by trypan blue exclusion of viable cells. […] For factor-independent growth, the number of viable cells was determined at day 3 by trypan blue dye exclusion.

[4] = 1 μM, within the first 24 hours

COc1ccc(C(=O)N2CCN(c3cc(Nc4ccc(OC(F)(F)F)cc4)ncn3)CC2)cc1OC [Compound 16]
cells inhibited [1, 4]: 35%
viable cells ([1]; 2 μM, T=48 hr): 27.59%
cell proliferation affected ([1]; 5 μM): ~90%
time of maximum inhibition post application ([1]; 5 μM, WT-p185- and T315I-p185-BCR-ABL Ba/F3): 60 h
RF (T315I-p185 versus p185-Ba/F3) ([2]; 1 μM, 48 hr): 1.07
cells inhibited [2, 4]: not affected
resistance conferred by T315I mutant versus p185-Ba/F3 ([2]; 2 μM, T=48 hr): 1.84 fold
viable cells ([2]; 2 μM, T=48 hr): 50.71%
time to complete inhibition ([2]; 10 μM): ~96 h
cell proliferation affected ([2]; 5 and 10 μM): ~80%
antiproliferative response (in words) (Jurkat): highly insensitive; also recorded: irresponsive
response (in words) (HP (Ph− ALL cultures)): irresponsive
IC50 [3]: ~2100 nM
response (in words) (KÖ (Ph+T315I-BCR-ABL)): inhibited with variable degrees
effect on proliferation (in words) (WT-Ba/F3): without affecting the proliferation
